Data set [1] deals with CHO-K1 cells. In words: Cytotoxicity to the cells of the transactivation assay. Format: cell-based, Chinese hamster.
Data set [2] deals with T1, GAL4-hERα ligand binding domain (LBD) chimeric receptor (Homo sapiens, UniProt P03372).
T1 construct: expressed in transfected cells; host or cells: CHO-K1 (Chinese hamster cells), transient co-transfection with (UAS)4-ALP reporter plasmid
T1 sequence (P03372 311-547 limits assumed): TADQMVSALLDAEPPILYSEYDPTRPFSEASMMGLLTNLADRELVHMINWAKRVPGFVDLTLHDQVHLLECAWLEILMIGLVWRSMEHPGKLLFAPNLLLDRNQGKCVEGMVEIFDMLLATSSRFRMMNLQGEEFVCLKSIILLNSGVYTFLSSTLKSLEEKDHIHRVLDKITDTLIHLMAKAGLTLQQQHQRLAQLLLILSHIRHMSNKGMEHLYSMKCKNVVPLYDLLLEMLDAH
Kind of data set: Transactivation assay for estrogen receptor, ALP reporter, compound alone (ERα). In kind it is cell-based. The settings on record: for Activation of ERα: under tested condition (maximum tolerable 2 μM); for Maximum activation for ERα: concentration not given. An excerpt: (§1) 1. Estrogen Activity Analysis: Transactivation Assay for Estrogen Receptor
(§2) Plasmid pBKCMV containing GAL4-hERα (or ERβ) ligand binding domain (LBD) chimeric receptors and plasmid containing (UAS)4-alkaline phosphatase (ALP) […] were co-transfected into Chinese hamster cells (CHO-K1). Compounds with estrogenic activity would interact with estrogen-specific ER to induce the binding of GAL4 and upstream activation sequence (UAS)4 specifically to initiate the expression of ALP gene. Therefore, the ALP activity can be used to determine whether the samples to be assayed have the estrogenic activity.
Cells in high confluence were plated onto 96-well culture plate the day before transfection. The plate was then washed to remove the serum during the day of transfection, followed by addition of two plasmid DNA, GAL4-hER[…] and (UAS)4-ALP in the ratio of 1:1 together with Lipofectamine 2000 (GIBCOBRL) transfection agent and culture medium to form DNA-liposome complex for 5 hours. The sample to be assayed was added into the medium of transfected cells and cultivated for two days.

Data set [3] addresses T2, GAL4-hERβ ligand binding domain (LBD) chimeric receptor (Homo sapiens, UniProt Q92731).
T2 construct: expressed in transfected cells; host or cells: CHO-K1 (Chinese hamster cells), transient co-transfection with (UAS)4-ALP reporter plasmid
In words: Transactivation assay for estrogen receptor, ALP reporter, compound alone (ERβ). Conditions: for Activation of ERβ: under tested condition (maximum tolerable 2 μM); for Maximum activation for ERβ: concentration not given; for EC50: compound alone. In kind it is cell-based.
Excerpt: as §1, §2
(§3) The CHO-K1 cell purchased from the Food Industry Research and Development Institute Taiwan with an accession number of CCRC 60006 were cultivated with medium containing 10% FBS and Ham's F12 nutrient mixture (GIBCOBRL). Cells in high confluence were plated onto 96-well culture plate the day before transfection. The plate was then washed to remove the serum during the day of transfection, followed by addition of two plasmid DNA, GAL4-hER[…] and (UAS)4-ALP in the ratio of 1:1 together with Lipofectamine 2000 (GIBCOBRL) transfection agent and culture medium to form DNA-liposome complex for 5 hours. The sample to be assayed was added into the medium of transfected cells and cultivated for two days. The medium was aliquoted for ALP assay using 4-Nitrophenul phosphate disodium salt hexahydrate (pNPP) as the colorimetric substrate for alkaline phosphatase, and reading the absorbance of 405 nm.

Data set [4] deals with T1, GAL4-hERα ligand binding domain (LBD) chimeric receptor. In words: Transactivation assay, combination treatment with 1 nM E2 (ERα). Format: cell-based.
Excerpt: as §2, §3

Data set [5] has as its target T2, GAL4-hERβ ligand binding domain (LBD) chimeric receptor. In words: Transactivation assay, combination treatment with 1 nM E2 (ERβ). In kind it is cell-based.
Excerpt: as §2, §3

Data on 8 molecules can be found in patent US8669244B2, “Cucurbitane-triterpenoid compounds, pharmaceutical composition, use and preparation method thereof” (National Taiwan University, priority 2011, dated 2014).

Usually EC50 stands for the concentration that produces a half-maximal response. Read a high EC50 as a need for much substance.

T2 sequence (Q92731 264-498 limits assumed, change not shown): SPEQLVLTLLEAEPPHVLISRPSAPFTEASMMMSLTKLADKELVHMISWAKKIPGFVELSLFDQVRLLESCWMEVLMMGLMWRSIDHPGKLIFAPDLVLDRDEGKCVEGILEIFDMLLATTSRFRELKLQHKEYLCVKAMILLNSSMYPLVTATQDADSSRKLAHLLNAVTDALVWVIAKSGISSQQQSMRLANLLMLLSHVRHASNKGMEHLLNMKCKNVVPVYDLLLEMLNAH

`CC(C)=C/C=C/[C@@H](C)[C@H]1CC[C@@]2(C)[C@@H]3C=CC4=C(CC[C@H](O)C4(C)C)[C@]3(C=O)CC[C@]12C` [compound 3, 3β-hydroxycucurbita-5(10),6,22(E),24-tetraen-19-al]: in data set [1], the “Cytotoxicity: maximum tolerable concentration for cells” value was determined as 2 µM. For the same molecule, in data set [2], the “Activation of ERα” value was “no significant activation”. The “Activation of ERβ” value in data set [3] is on record as “no significant activation”. Further, the “ALP activity, E2-induced ERα activation remaining (E2 = 100%)” value in data set [4] (2 μM compound + 1 nM E2) amounted to 48%. Moreover, the “ALP activity, E2-induced ERβ activation remaining (E2 = 100%)” value in data set [5] (2 μM compound + 1 nM E2) was 73%.
Consider `CC(C)=C/C=C/[C@@H](C)[C@H]1CC[C@@]2(C)[C@@H]3C=C[C@@]45OC(O)[C@]3(CC[C@]12C)C4CC[C@H](O)C5(C)C` (stereo partly drawn) [compound 2, 5β,19-epoxycucurbita-6,22(E),24-trien-3β,19-diol], for which the “Maximum activation for ERα” value in data set [2] (relative to 1 nM E2) is recorded as 15 % of E2. In addition, the “Maximum activation for ERβ” value in data set [3] (relative to 1 nM E2) is 8 % of E2.
The corresponding values for `CC(C)=C/C=C/[C@@H](C)[C@H]1CC[C@@]2(C)[C@@H]3C=C[C@@]45OC(=O)[C@]3(CC[C@]12C)C4CC[C@H](O)C5(C)C` (stereo partly drawn) [compound 1, cucurbita-6,22(E),24-trien-3β-ol-19,5β-olide] are 12 % of E2 and 10 % of E2.
Turning to `CC1=C[C@H](O)CC(C)(C)[C@H]1/C=C/C(C)=C/C=C/C(C)=C/C=C/C=C(C)/C=C/C=C(C)/C=C/C1=C(C)C[C@@H](O)CC1(C)C` [lutein, Lutein], the “Maximum activation of ERβ” value in data set [3] (at 35 μM) is on record as 26 % that of E2. In addition, the EC50 in data set [3] was determined as 11.8 µM. Besides, the “Maximum activation of ERβ with E2” value in data set [5] (lutein at 18 (unit not given) + 1 nM E2) is recorded as 166 % that of E2.
On to `COC(OC)[C@@]12CC[C@]3(C)[C@@H]([C@H](C)/C=C/C=C(C)C)CC[C@@]3(C)[C@@H]1C=CC1=C2CC[C@H](O)C1(C)C` [compound 4, 19-dimethoxycucurbita-5(10),6,22(E),24-tetraen-3β-ol], for which, in data set [1], the “Cytotoxicity: maximum tolerable concentration for cells” value came to 2 µM. In addition, in data set [2], the “Activation of ERα” value is given as “no significant activation”. For the same molecule, in data set [3], the “Activation of ERβ” value is on record as “no significant activation”.
Consider `CC(C)=C/C=C/[C@@H](C)[C@H]1CC[C@@]2(C)c3ccc4c(c3CC[C@]12C)CC[C@H](O)C4(C)C` [compound 5, 19-nor-cucurbita-5(10),6,8,22(E),24-pentaen-3β-ol], for which the “Maximum activation for ERα” value in data set [2] (relative to 1 nM E2) was 15 % of E2. Also, the “Maximum activation for ERβ” value in data set [3] (relative to 1 nM E2) is listed as 9 % of E2. Besides, the “E2 induced activation of ERβ remaining” value in data set [5] (1 μM compound + 1 nM E2, p<0.05) is 83 % of E2.
Turning to `CC(C)=CC(O)C[C@@H](C)[C@H]1CC[C@@]2(C)[C@@H]3C=C[C@@]45OC[C@]3(CC[C@]12C)C4CC[C@H](O)C5(C)C` (single isomer, unassigned) [compound 6, 5β,19-epoxycucurbita-6,24-dien-3β,23ξ-diol], the “Maximum activation effect for ERα” value in data set [2] (at 22 μM, relative to 1 nM E2) is recorded as 30 % of E2. For the same molecule, the “Maximum activation effect for ERβ” value in data set [3] (at 22 μM, relative to 1 nM E2) is on record as 23 % of E2. Besides, the “ALP activity, E2-induced ERα activation remaining (E2 = 100%)” value in data set [4] (22 μM compound + 1 nM E2) is given as 10%. In addition, the “ALP activity, E2-induced ERβ activation remaining (E2 = 100%)” value in data set [5] (22 μM compound + 1 nM E2) worked out at 24%.
As for `CC1(C)C[C@H](O)C[C@@]2(C)OC(=O)C=C12` [loliolide, Loliolide], the “Maximum activation of ERα” value in data set [2] (at 102 (unit not given)) is 24 % of E2. For the same molecule, the results for the EC50 in data set [2] (compound alone) and in data set [3] were 14.2 µM and 16.7 µM, respectively. In addition, the “Maximum activation of ERβ” value in data set [3] (at 51 μM) was 20 % of E2. Further, the “Maximum activation of ERα with E2” value in data set [4] (102 μM + 1 nM E2) is 146 % of E2. Moreover, the “Maximum activation of ERβ with E2” value in data set [5] (51 μM + 1 nM E2) is 145 % of E2.
